The text below walks through data of ChEMBL document CHEMBL4321815, “Discovery of an Extremely Potent Thiazine-Based β-Secretase Inhibitor with Reduced Cardiovascular and Liver Toxicity at a Low Projected Human Dose” (J Med Chem, 2019).

In one experiment the test system is Canis familiaris. Kind of experiment: In vivo inhibition of BACE1 in po dosed Beagle dog assessed as plasma level causing 50% reduction in amyloidbeta42 level in CSF administered as single dose measured after 4 to 49 hrs. The experiment is classed as functional, organism-based. As to conditions: Canis lupus familiaris.
The subject of a further experiment is Homo sapiens. Put plainly: In vivo inhibition of BACE1 in human assessed as reduction in amyloidbeta level at 40 mg administered once daily relative to control. The experiment is classed as functional.

As to `CN1C(N)=N[C@](C)(c2cc(NC(=O)c3ccc(F)cn3)ccc2F)CS1(=O)=O` [VERUBECESTAT], the EC50 in the experiment with Canis familiaris stood at 34 nM. Further, the “inhibition (INH)” value with Homo sapiens came out at 80%.
